Measurements taken from patent US8470340B2, “Peptides presenting an epitope of a domain of factor H binding protein and methods of use” (priority 2008, dated 2013).
Positions count from the first letter of the chain named. In names and notes the source's numbering stands. Ends that are not written are not given here.

B1: D25A: recombinant v.1 fHbp (gene from MC58) with residue 25 changed to alanine (protein)
chain: CSSGGGGVAADIGAGLADALTAPLAHKDKGLQSLTLDQSVRKNEKLKLAAQGAEKTYGNGDSLNTGKLKNDKVSRFDFIRQIEVDGQLITLESGEFQVYKQSHSALTAFQTEQIQDSEHSGKMVAKRQFRIGDIAGEHTSFDKLPEGGRATYRGTAFGSDDAGGKLTYTIDFAAKQGNGKIEHLKSPELNVDLAAADIKPDGKRHAVISGSVLYNQAEKGSYSLGIFGGKAQEVAGSAEVKTVNGIRHIGLAAKQHHHHHH
B2: K27A: recombinant v.1 fHbp (gene from MC58) with residue 27 changed to alanine (protein)
chain: B1 chain with A25D, K27A
B3: H26A: recombinant v.1 fHbp (gene from MC58) with residue 26 changed to alanine (protein)
chain: B1 chain with A25D, H26A

What was measured:
JAR4 mAb [1] = test: […] of phage library clones; format: binding, murine; conditions: JAR4 coated at 1 μg/ml, cleared phage supernatant, absorbance at 450 nm
Description: […]—Aliquots in 96 wells ELISA plates 100 μl per well of JAR4 mAb were diluted (1 μg/ml) in 50 mM NaHC03, 0.02% (w/v) NaN3, pH 9.6 and incubated 3 hrs at 37° C. or overnight at 4° C. After washing 8 times with 1×PBS containing 0.05% (v/v) TWEEN 20), 200 μl of blocking buffer (PBS, 0.05% TWEEN 20, 5% non-fat dry milk) was added and incubated for 1 hr at 37° C. The wash was discarded and a mixture of 100 μl cleared phage supernatant and 100 μl blocking buffer was added, to the plate and incubated for 3 hrs at 37° C. or overnight at 4° C. After washing 8 times with 1×PBS containing 0.05% (v/v) TWEEN 20), and anti-M13 peroxidase conjugate antibody (Amersham Biosciences, Buckinghamshire, UK) was added at a dilution of […] in blocking buffer (100 μl/well) and incubated for 1 h at 37° C. After further washing, antibody binding was detected by adding TMB substrate, incubated for 45 min at room temperature and stopped with […] of 1 M H2SO4 and reading absorbance at 450 nm.
(§1) In order to identify peptides useful in eliciting antibodies having the eptitope-binding properties of the JAR 4 mAb, libraries of filamentous bacteriophage containing random peptides (9-mers and 12-mers) fused to protein VIII were screened using the JAR 4 mAb as described above. Phage eluted in the final step were used to infect host bacteria, from which the phagemids were collected and the relevant DNA sequence amplified by PCR and sequenced to identify the peptides that interacted with JAR 4 mAb. The relative binding affinity of the peptide of the isolated phage was determined by both […] and […], as described above.

JAR4 mAb [2] = test: […] of phage library clones; format: binding, murine; conditions: phage captured by anti-pIII mAb, JAR4 detection, absorbance at 405 nm
Description: —Ninety-six wells plates were coated o.n. at 4° C. with 100 μl per well of a rat anti-pili (coat protein III) monoclonal antibody (concentration 1 mg/ml) in 50 mM NaHC03, 0.02% (w/v) NaN3, pH 9.6, and washed 8 times with TBST (50 mM Tris/Cl, 150 mM NaCl, pH 7.5, 0.05% (v/v) TWEEN 20). One hundred μl per well of cleared phage supernatant was added. After washing as above and incubation with antibody (concentration 1 mg/ml) in blocking buffer (5% (w/v) non-fat dry milk, 0.05% TWEEN 20 in PBS), and washing, the binding of the monoclonal antibody was detected by alkaline-phosphatase conjugated goat anti-mouse IgG antibody (Sigma, dilution 1:5000) using p-nitrophenyl phosphate substrate tablets (Sigma).
as §1

anti-fHbp mAb JAR 4 = test: Direct binding ELISA of mAb to KLH-conjugated peptides; design: species or system murine; conditions: for mAb Reactivity JAR 4: KLH-conjugated peptide coated at 2 μg/ml; for reactivity with JAR 4 by ELISA: KLH-conjugated peptides, in words
Description: (§2) The ability of anti-fHbp mAb JAR 4 to bind to the KLH-conjugated peptides was determined by a direct binding ELISA. ELISA plates were coated with 100 μl per well of a 2 μg/ml (peptide concentration) solution at 4° C. overnight. The following morning, the plates were washed and then blocked with PBS containing 1% BSA. The plates were washed and incubated with serial dilutions of mAb JAR 4 or, as a control, anti-fHbp JAR 5 or anti-PorA P1.2 mAb. After incubation (1 hour at room temperature), the plates were washed and incubated with anti-mouse IgG conjugated either with alkaline phosphatase or IRDye 800CW (1:1000). The alkaline phosphatase was detected at 420 nm wavelength after 30 min incubation with phosphatase substrate (1 mg/ml) and the IRDye was detected at 800 nm wavelength.

anti-fHbp JAR 5 = test: as above; design: species or system murine; conditions: for mAb Reactivity JAR 5: KLH-conjugated peptide coated at 2 μg/ml; for binding to control mAb anti-fHbp JAR 5: KLH-conjugated peptides, in words
Description: as §2

anti-PorA P1.2 mAb = test: as above; conditions: KLH-conjugated peptide coated at 2 μg/ml
Description: as §2

JAR 4 [3] = test: ELISA binding of native fHbp sequence peptides; design: species or system murine; conditions: peptides from the native v.1 fHbp sequence
JAR 4 [4] = test: ELISA binding of mAb to site-specific mutant recombinant v.1 fHbp; design: species or system murine; conditions: for decrease in JAR 4-reactivity compared with wild-type recombinant fHbp: v.1 fHbp (gene from MC58) alanine mutants
Description: Site-specific mutagenesis was used to test the role of amino acid residues involved in the JAR 4 anti-fHbp mAb epitope. Mutagenesis was performed using the QuikChange II kit (Stratagene) using 10 ng of plasmid template and the manufacturer's protocols. For testing residues putatively involved in mAb epitopes, mutagenesis reactions were performed on pET21-based plasmids encoding a wild-type fHbp gene. Site-specific mutagenesis was used to introduce the H26A and K27A substitution into the pET21 plasmid encoding v.1 fHbp from MC58. Mutant fHbp genes were confirmed by DNA sequencing as described for the wild-type plasmids, above.
Site-directed mutagenesis of residues 25, 26 and 27 was performed, each of which was individually changed to alanine in fHbp from the v.1 group (gene from MC58). These mutants were created using the non-signal containing sequence from strain MC58 (MVAAD . . . GLAAKQ) (SEQ ID NO:73), and are referred to as D25A, H26A and K27A, respectively. The amino acid sequences of the portions of the A domains of these mutants is provided in FIG. 7, Panel A. Results of the binding experiment between mutated fHbp and the various JAR mAbs are shown in FIG. 6.

Row | Molecule | PHAGELISA (JAR4 mAb [1]) | SEPHELISA (JAR4 mAb [2]) | other results
1 | 15 (RCQVQVMVLCAL) [Clone 15] | + (O.D. from 0.15 to 0.5) | + (O.D. from 0.15 to 0.5) | –
2 | TKDDPLKQHLALSAGDPAKC (also: conjugated to KLH) [JAR 4 Scrambled, scrambled native fHbp peptide, negative control, conjugated to KLH, reference compound] | – | – | mAb Reactivity JAR 4 (anti-fHbp mAb JAR 4): − (no detectable binding at 50 μg/ml); mAb Reactivity JAR 5 (anti-fHbp JAR 5): − (no detectable binding at 50 μg/ml); mAb Reactivity P1.2 (anti-PorA P1.2 mAb): − (no detectable binding at 50 μg/ml)
3 | 18 (VGWCGFERCSSA) [Clone 18] | + (O.D. from 0.15 to 0.5) | + (O.D. from 0.15 to 0.5) | –
4 | 7 (WRWCGFERCPEG) [Clone 7] | + (O.D. from 0.15 to 0.5) | ++ (O.D. from 0.5 to 1) | –
5 | 12 (KDHRHMLWPEES) [Clone 12] | + (O.D. from 0.15 to 0.5) | + (O.D. from 0.15 to 0.5) | –
6 | AEGEFHDHKLEGTEDPAKC (also: conjugated to KLH) [JAR 4 Phage 3, synthetic peptide conjugated to keyhole limpet hemocyanin (KLH)] | – | – | mAb Reactivity JAR 4 (anti-fHbp mAb JAR 4): + (50% of maximal binding at 1-10 μg/ml); reactivity with JAR 4 by ELISA (anti-fHbp mAb JAR 4): reacted; mAb Reactivity JAR 5 (anti-fHbp JAR 5): − (no detectable binding at 50 μg/ml); binding to control mAb anti-fHbp JAR 5 (anti-fHbp JAR 5): no detectable binding
7 | 9 (NDERQMSDWYRA) [Clone 9] | + (O.D. from 0.15 to 0.5) | + (O.D. from 0.15 to 0.5) | –
8 | 17 (SDWGWGGRAEQH) [Clone 17] | + (O.D. from 0.15 to 0.5) | + (O.D. from 0.15 to 0.5) | –
9 | ADALTAPLDHKDK [SEQ ID NO: 32] | – | – | binding to JAR 4 by ELISA (JAR 4 [3]): no detectable binding
10 | 4 (WTLAVFDHKAQT) [Clone 4] | +++ (O.D. from 1 to 2) | +++ (O.D. from 1 to 2) | –
11 | 14 (WVLCGQGCGGTA) [Clone 14] | + (O.D. from 0.15 to 0.5) | + (O.D. from 0.15 to 0.5) | –
12 | 1 (HDHKLEGTE) [Clone 1] | +++ (O.D. from 1 to 2) | ++++ (O.D. from 2 to 3.5) | –
13 | 11 (LEWCGFSRCEVG) [Clone 11] | + (O.D. from 0.15 to 0.5) | + (O.D. from 0.15 to 0.5) | –
14 | 13 (LCQERLSQRCGV) [Clone 13] | + (O.D. from 0.15 to 0.5) | + (O.D. from 0.15 to 0.5) | –
15 | DHKDKGLQSLTLD [SEQ ID NO: 33] | – | – | binding to JAR 4 by ELISA (JAR 4 [3]): no detectable binding
16 | 2 (CGGVYDDKTGCA) [Clone 2] | ++ (O.D. from 0.5 to 1) | ++++ (O.D. from 2 to 3.5) | –
17 | 6 (FHDHKTANQ) [Clone 6] | + (O.D. from 0.15 to 0.5) | ++ (O.D. from 0.5 to 1) | –
18 | 8 (HDHRIWPLDVTA) [Clone 8] | + (O.D. from 0.15 to 0.5) | ++ (O.D. from 0.5 to 1) | –
19 | 16 (HDHKHGFQEPAS) [Clone 16] | + (O.D. from 0.15 to 0.5) | + (O.D. from 0.15 to 0.5) | –
20 | AQAFQTPVHSDPAKC (also: conjugated to KLH) [GNA 33, control peptide, a mimetic of PorA P1.2, conjugated to KLH, reference compound] | – | – | mAb Reactivity JAR 4 (anti-fHbp mAb JAR 4): − (no detectable binding at 50 μg/ml); mAb Reactivity P1.2 (anti-PorA P1.2 mAb): + (50% of maximal binding at 1-10 μg/ml)
21 | 5 (GCMGYDHRSGCV) [Clone 5] | + (O.D. from 0.15 to 0.5) | ++ (O.D. from 0.5 to 1) | –
22 | HFVQQTPQSQDPAKC (also: conjugated to KLH) [PorA P1.2, control peptide derived from loop 4 of PorA VR2, strain 2996, conjugated to KLH, reference compound] | – | – | mAb Reactivity JAR 4 (anti-fHbp mAb JAR 4): − (no detectable binding at 50 μg/ml); mAb Reactivity P1.2 (anti-PorA P1.2 mAb): + (50% of maximal binding at 1-10 μg/ml)
23 | 3 (HDHKTQLDP) [Clone 3] | ++++ (O.D. from 2 to 3.5) | ++++ (O.D. from 2 to 3.5) | –
24 | ALTAPLDHKDKGLQSDPAKC (also: conjugated to KLH) [JAR 4 Native, reference compound] | – | – | mAb Reactivity JAR 4 (anti-fHbp mAb JAR 4): − (no detectable binding at 50 μg/ml); mAb Reactivity JAR 5 (anti-fHbp JAR 5): − (no detectable binding at 50 μg/ml)
25 | AEGEFWTLAVFDHKAQTGDPAKC (also: conjugated to KLH) [JAR 4 Phage 2, synthetic peptide conjugated to keyhole limpet hemocyanin (KLH)] | – | – | mAb Reactivity JAR 4 (anti-fHbp mAb JAR 4): ++ (50% of maximal binding at < 1 μg/ml); reactivity with JAR 4 by ELISA (anti-fHbp mAb JAR 4): reacted; mAb Reactivity P1.2 (anti-PorA P1.2 mAb): − (no detectable binding at 50 μg/ml)
26 | 10 (HVHRGSQGGQRQ) [Clone 10] | + (O.D. from 0.15 to 0.5) | + (O.D. from 0.15 to 0.5) | –
27 | AEGEFHDHKTQLDPDPAKC (also: conjugated to KLH) [JAR 4 Phage 1, synthetic peptide conjugated to keyhole limpet hemocyanin (KLH)] | – | – | mAb Reactivity JAR 4 (anti-fHbp mAb JAR 4): ++ (50% of maximal binding at < 1 μg/ml); reactivity with JAR 4 by ELISA (anti-fHbp mAb JAR 4): reacted; mAb Reactivity JAR 5 (anti-fHbp JAR 5): − (no detectable binding at 50 μg/ml); binding to control mAb anti-fHbp JAR 5 (anti-fHbp JAR 5): no detectable binding; mAb Reactivity P1.2 (anti-PorA P1.2 mAb): − (no detectable binding at 50 μg/ml)
28 | B1 | – | – | decrease in JAR 4-reactivity compared with wild-type recombinant fHbp (JAR 4 [4]): approximately 1000 fold
29 | B2 | – | – | JAR 4 binding compared with wild-type recombinant fHbp (JAR 4 [4]; v.1 fHbp (gene from MC58) alanine mutant): eliminated detectable JAR 4 binding
30 | B3 | – | – | decrease in JAR 4-reactivity compared with wild-type recombinant fHbp (JAR 4 [4]): approximately 10 fold
